One series deals with female CD-1 mouse. The series can be described thus: IVIVE of mouse clearance from microsomes (well-stirred model, regression correction). The conditions noted are these: for Fold obs. / pred. (mic.) CL,b,u - Kilford / in vitro (mic.) pred. CLint,b - Kilford / in vitro (mic.) pred. CLint,b,u - Kilford: Kilford fu,mic. An excerpt:
Compounds with phase II metabolism were removed from the microsome set (N = 25). […] The following regression equations were derived for microsomes and hepatocytes, respectively: log predicted CLint = 0.8 * log scaled CLint + 0.6 and log predicted CLint = 0.6 * log scaled CLint + 0.8, with CLint expressed in mL/min/kg.
According to Sohlenius-Sternbeck et al., the following equations were used for IVIVE: scaled CLint,b=in vitro CLint∗microsomes/hepatocytes/gram of liver∗liver weight/body weight∗fu,p/fu,inc∗Rb
The physiological scaling factors, taken from Simcyp^TM version 13/1 (Certara), were 48 mg of microsomal protein per gram of liver (MPPGL), 101.7 × 10^6 hepatocytes per gram of liver (HPGL), a liver weight of 1.46 g, and a body weight of 0.025 kg. For microsomes and hepatocytes, fu,mic and fu,hep, were used as the unbound fraction in the incubation (fu,inc), respectively. predicted CLint,b=10^(log scaled CLint∗slope+intercept)
For microsomes, a slope of 0.8 and an intercept of 0.6 were used, and for hepatocytes, a slope of 0.6 and an intercept of 0.8, according to the regression equations derived above. predicted CL,b=pred. CLint,b∗QH/pred. Clint,b+QH
CLp/Rb observed CLint,b=QH∗obs. CL,b/QH−obs. CL,b
All unbound clearance terms were calculated by dividing the respective clearance by fu,p. predicted/observed CL,b,u=pred./obs. CL,b/fu,p
The above-described approach was applied for the IVIVE of clearance of the data set analyzed in this study. Additionally, in order to evaluate the impact of the Kilford calculations as a surrogate for the experimentally determined free fraction in the in vitro systems, clearance was extrapolated using the Kilford equations [16] using the same regression coefficients.

The nature of a further series: Kinetic solubility. Type of series: physicochemical. The procedure: The kinetic solubility (KSOL) determination is carried out in a 96-well plate filtration format where the sample (2 μL of sample stock solution 10mM DMSO) is combined to 98 μL of 20 mM buffer phosphate pH 7.4. The filtration plate is then incubated and agitated at 250 rpm for 120 minutes. After stirring, the plate is centrifuged at 2500 rpm for 3 minutes, allowing all solvent to be collected in the lower microplate. Next to avoid pre-cipitation, 50 μL of the filtered solution is diluted with 50 μL of 2% DMSO in pH 7.4 buffer solution to yield a 100 μM sample solution ready for H(U)PLC analytics.
For the standard, each compound is prepared by combining 2 μL of the sample stock solution 10mM DMSO to 198 μL Acetonitrile/Methanol/Eluant A ([…]).
For the evaluation, wavelength with maximum sensitivity is to be selected. The kinetic solubility is determined according to following formulas, whereas S is the targeted value […]
L = area௦௔௠௣௟௘ × concentration௦௧௔௡ௗ௔௥ௗ × dilution factor௦௔௠௣௟௘area௦௧௔௡ௗ௔௥ௗ × dilution factor௦௧௔௡ௗ௔௥ௗ with: L= Concentration of solved compound in buffer [μg/ml] and S= Molar concentra-tion of solved compound in buffer [mol/L]
Chromatographic conditions: Column Waters XBridge Column C8 3.5μm (Waters Cat No 186003053); Column temperature 37°C; Autosampler Room temperature (approx.
25°C); Injection volume 10 μL (HPLC) / 3μL (UPLC); Wavelength 220 nm, 254 nm, 290 nm. Eluant A: 1 mL Formic Acid + 999 mL Ultrapure Water; Eluant B: 1 mL Formic Acid […]
Table S5. Gradient for UHPLC analysis
Time Eluent A (%) Eluent B (%) Flow (ml/min)
Reagents and Materials: Phosphate Buffer 20mM pH 7.4: EMS, Art No. 11601-40; DMSO Merck Art. No. 102950; Acetonitrile Merck, Art. No. 100030, Methanol Merck Art. No.
106007; Formic Acid Merck Art.No.100264; Acetonitrile Merck Art. No.10030; Filtration Plate Millipore MultiScreen HTS HV 0.45uM; 96 Well Millipore Art. No. MSHVN4510; Column Waters XBridge Column C8 3.5μm (Waters Cat. No. 186003053); HPLC vials VWR Cat. No. 5480028; Micro-Inserts VWR Cat. No. 548-0006; Screw caps VWR Cat. No. […]

Where [1] appears, read: microsomes, experimental fu,mic.

Consider `O=C(O)c1cc(-c2ccc(F)cc2F)ccc1O` [MSC001], for which, in the series with female CD-1 mouse (microsomes), the “Fold obs. / pred. (mic.) CL,b,u - Kilford” value stood at 0.5, the “in vitro (mic.) pred. CLint,b - Kilford” value turned out to be 5.69 mL/min/kg and the “in vitro (mic.) pred. CLint,b,u - Kilford” value turned out to be 334.02 mL/min/kg. In the series with female CD-1 mouse (setting [1]), the “Fold obs. / pred. (mic.) CL,b,u - exp. fu,mic” value was 0.5, the “in vitro (mic.) pred. CLint,b - exp. fu,mic” value amounted to 5.96 mL/min/kg and the “in vitro (mic.) pred. CLint,b,u - exp. fu,mic” value is on record as 349.34 mL/min/kg. The “Kinetic solubility PBS pH 7.4” value in the series “Kinetic solubility” was > 200 µM.

Consider `CNC(=O)c1cc(Oc2ccc3nc(N[C@@H]4CCCC[C@H]4O)sc3c2)ccn1` [MSC003], for which, in the series on female CD-1 mouse (microsomes), the “Fold obs. / pred. (mic.) CL,b,u - Kilford” value was 0.528, the “in vitro (mic.) pred. CLint,b - Kilford” value was determined as 13.72 mL/min/kg and the “in vitro (mic.) pred. CLint,b,u - Kilford” value was 179.53 mL/min/kg. Besides, in the series on female CD-1 mouse (setting [1]), the “Fold obs. / pred. (mic.) CL,b,u - exp. fu,mic” value amounted to 0.5, the “in vitro (mic.) pred. CLint,b - exp. fu,mic” value worked out at 14.24 mL/min/kg and the “in vitro (mic.) pred. CLint,b,u - exp. fu,mic” value was found to be 186.35 mL/min/kg. For the same compound, in the series “Kinetic solubility”, the “Kinetic solubility PBS pH 7.4” value stood at 156.7 µM.

Turning to `N#Cc1c[nH]c2c(C(=O)N3CCN(CCc4ccc(F)cc4)CC3)cccc12` [MSC213], in the series on female CD-1 mouse (from microsomes), the “in vitro (mic.) pred. CLint,b - Kilford” value was 59.38 mL/min/kg and the “in vitro (mic.) pred. CLint,b,u - Kilford” value turned out to be 1278.61 mL/min/kg. In the series with female CD-1 mouse (from microsomes, exp. fu,mic), the “in vitro (mic.) pred. CLint,b - exp. fu,mic” value is reported as 127.90 mL/min/kg and the “in vitro (mic.) pred. CLint,b,u - exp. fu,mic” value is 2754.05 mL/min/kg. Further, in the series on female CD-1 mouse (microsomes), the “Fold obs. / pred. (mic.) CL,b,u - Kilford” value stood at 1.7. Besides, the “Fold obs. / pred. (mic.) CL,b,u - exp. fu,mic” value in the series with female CD-1 mouse (microsomes, exp. fu,mic) was 1.1. For the same compound, the “Kinetic solubility PBS pH 7.4” value in “Kinetic solubility” was 105.1 µM.

In the case of `COc1cccc(OCCCN)c1-c1cc(Nc2cnc(C#N)cn2)n[nH]1` [MSC020], in the series with female CD-1 mouse (microsomes), the “Fold obs. / pred. (mic.) CL,b,u - Kilford” value was determined as 1.3, the “in vitro (mic.) pred. CLint,b - Kilford” value was 148.30 mL/min/kg and the “in vitro (mic.) pred. CLint,b,u - Kilford” value was determined as 772.42 mL/min/kg. Moreover, in the series with female CD-1 mouse (setting [1]), the “Fold obs. / pred. (mic.) CL,b,u - exp. fu,mic” value is on record as 1.1, the “in vitro (mic.) pred. CLint,b - exp. fu,mic” value is given as 214.87 mL/min/kg and the “in vitro (mic.) pred. CLint,b,u - exp. fu,mic” value was found to be 1119.12 mL/min/kg. Further, the “Kinetic solubility PBS pH 7.4” value in the series “Kinetic solubility” is 165.4 µM.

Values taken from paper PMC12029992, “Beyond-Rule-of-Five Compounds Are Not Different: In Vitro–In Vivo Extrapolation of Female CD-1 Mouse Clearance Based on Merck Healthcare KGaA Compound Set” (Pharmaceuticals, 2025).
